According to US5801035A, “L-amino acid oxidase” (Novo Nordisk A/S, priority 1993, dated 1998):

System: L-amino acid oxidase
Test: Substrate specificity: specific activity and Km (Lineweaver-Burk) with various L-amino acids, H2O2 detected with ABTS and CiP
Assay type: biochemical, Trichoderma harzianum
Settings: phosphate buffer pH 8.5, room temperature; for Km: Lineweaver-Burk plots; for Specific Activity: 20 minutes
Experimental: The specific activity of the purified L-amino acid oxidase was 16 U/mg determined in a 50 mM phosphate buffer at pH 8.5, 20° C. with 1 mM L-arginine as substrate. One unit of enzyme will form 1 μmole of hydrogen peroxide per minute. The amount of protein is quantified assuming that a solution of the L-amino acid oxidase having an optical density of 1 determined at 280 nm contains 1 mg of protein/ml. The L-amino acid oxidase yield was approx. 50 mg of pure protein per litre of culture medium.
In the following characterization experiments, detection of H2 O2 was carried out using a Coprinus cinereus peroxidase (CiP), obtained according to WO 92/16634, at a level of 4.5 PODU/ml, and 0.4 mM ABTS in phosphate buffer at pH 7.0. The hydrogen peroxide concentrations were determined relative to a freshly prepared hydrogen peroxide standard solution.
The activity of the L-amino acid oxidase was determined with various L-amino acids as substrates. The L-amino acid oxidase was incubated with substrate in a phosphate buffer at pH 8.5 and room temperature for 20 minutes. Generated hydrogen peroxide was detected using ABTS and CiP as described above. The specific activity was determined as described in Example 2 above.
Km values for the various substrates were determined by plotting values of 1/v versus 1/s (Lineweaver-Burk plots).

Row | SMILES | Km | Specific Activity (Substrate Conc. 1 (m/M)) | Specific Activity (Substrate Conc. 10 (m/M)) | Specific Activity (Substrate Conc. 80 (m/M))
1 | N=C(N)NCCC[C@H](N)C(=O)O [L-arginine] | 1.2 mM | 16 U/mg | 30 U/mg | –
2 | NC(=O)C[C@H](N)C(=O)O [L-asparagine] | 20 mM | – | – | 7 U/mg
3 | CC(C)C[C@H](N)C(=O)O [L-leucine] | 40 mM | – | – | 16 U/mg
4 | NCCCC[C@H](N)C(=O)O [L-lysine] | 0.2 mM | 7 U/mg | – | –
5 | CSCC[C@H](N)C(=O)O [L-methionine] | 15 mM | – | – | 8 U/mg
6 | N[C@@H](Cc1ccccc1)C(=O)O [L-phenylalanine] | 25 mM | – | – | 25 U/mg
